This note sets out measurements from publication PMC12090182, “Repurposing of the RIPK1-Selective Benzo[1,4]oxazepin-4-one Scaffold for the Development of a Type III LIMK1/2 Inhibitor” (ACS Chemical Biology, 2025).

Read-outs that look alike come from different tables or passages of the source.

In one assay the target is JAK2 (V617F) (Homo sapiens, UniProt O60674, V617F). Description: cell-based. Particulars: HEK-293T; 1 μM inhibitor, HEK293T cells.
In assay [1] the target is T1, BRAF(V600E) (Homo sapiens, UniProt P15056, V600E). Nature of the assay: cell-based. Particulars: HEK-293T; 1 μM inhibitor, HEK293T cells.
T1 sequence (P15056 whole entry V600E): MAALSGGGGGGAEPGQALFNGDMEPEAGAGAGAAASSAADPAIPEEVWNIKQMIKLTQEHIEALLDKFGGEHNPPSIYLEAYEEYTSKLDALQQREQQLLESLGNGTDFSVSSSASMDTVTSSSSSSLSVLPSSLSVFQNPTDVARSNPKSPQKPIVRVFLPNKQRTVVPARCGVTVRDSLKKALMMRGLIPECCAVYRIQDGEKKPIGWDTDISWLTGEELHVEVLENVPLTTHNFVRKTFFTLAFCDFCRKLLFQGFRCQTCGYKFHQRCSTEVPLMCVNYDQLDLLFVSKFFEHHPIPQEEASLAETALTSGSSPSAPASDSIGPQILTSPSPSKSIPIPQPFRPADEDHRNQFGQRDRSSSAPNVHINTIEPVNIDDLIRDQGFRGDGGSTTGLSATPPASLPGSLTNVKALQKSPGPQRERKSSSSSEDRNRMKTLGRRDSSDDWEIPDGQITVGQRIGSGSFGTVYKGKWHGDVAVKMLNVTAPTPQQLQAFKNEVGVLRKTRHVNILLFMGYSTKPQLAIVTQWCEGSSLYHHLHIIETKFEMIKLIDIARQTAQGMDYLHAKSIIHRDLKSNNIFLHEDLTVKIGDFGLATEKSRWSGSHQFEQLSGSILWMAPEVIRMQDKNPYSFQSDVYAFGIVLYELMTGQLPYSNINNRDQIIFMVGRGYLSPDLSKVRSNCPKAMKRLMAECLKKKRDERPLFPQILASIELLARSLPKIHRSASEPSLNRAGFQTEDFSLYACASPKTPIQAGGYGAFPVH
The target of another assay is T2, RIPK1 (Homo sapiens, UniProt Q13546).
T2 construct: full-length LIMK1/2, RIPK1, BTK, and LRRK2 cloned in a frame in a NanoLuc-vector (Promega); host or cells: HEK293T
T2 sequence (Q13546 1-671): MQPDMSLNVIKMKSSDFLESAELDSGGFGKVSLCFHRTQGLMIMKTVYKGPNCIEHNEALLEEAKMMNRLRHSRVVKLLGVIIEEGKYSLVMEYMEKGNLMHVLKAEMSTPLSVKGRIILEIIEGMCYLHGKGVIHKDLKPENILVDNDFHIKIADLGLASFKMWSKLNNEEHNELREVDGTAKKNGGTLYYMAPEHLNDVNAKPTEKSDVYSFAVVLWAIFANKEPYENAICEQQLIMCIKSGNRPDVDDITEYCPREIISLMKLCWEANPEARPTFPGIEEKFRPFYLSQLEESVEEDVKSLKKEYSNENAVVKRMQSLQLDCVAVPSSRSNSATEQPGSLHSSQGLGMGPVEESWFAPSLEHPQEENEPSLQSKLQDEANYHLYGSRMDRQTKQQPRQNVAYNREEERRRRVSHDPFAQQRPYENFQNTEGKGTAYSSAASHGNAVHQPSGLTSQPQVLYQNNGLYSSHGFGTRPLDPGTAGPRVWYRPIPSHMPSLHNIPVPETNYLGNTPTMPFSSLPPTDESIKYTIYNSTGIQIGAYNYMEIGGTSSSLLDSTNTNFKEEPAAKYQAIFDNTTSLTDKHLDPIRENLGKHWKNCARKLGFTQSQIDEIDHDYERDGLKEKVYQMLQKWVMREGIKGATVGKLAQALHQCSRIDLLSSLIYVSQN
Nature of the assay: scanMAX KINOMEscan (Eurofins). Type of assay: binding.

Assay [2] has as its target ABL1(Q252H)-phosphorylated (Homo sapiens, UniProt P00519, Q252H). Nature of the assay: biochemical. Conditions: read-out: Percent Control. It is filed as binding.
For the next assay, the target named is ALK(C1156Y) (Homo sapiens, UniProt Q9UM73, C1156Y). Nature of the assay: biochemical. It is filed as binding. Conditions: 1000 nM, read-out: Percent Control.
Assay [3] addresses ABL1(Y253F)-phosphorylated (Homo sapiens, UniProt P00519, Y253F). Description: biochemical. It is filed as binding. Particulars: read-out: Percent Control.
In the next assay the target is EGFR(G719C) (Homo sapiens, UniProt P00533, G719C). Description: biochemical. Type of assay: binding. Conditions: 1000 nM, read-out: Percent Control.
A further assay addresses LRRK2(G2019S) (Homo sapiens, UniProt Q5S007, G2019S). Description: biochemical. Particulars: read-out: Percent Control. It is filed as binding.
The target in a further assay is EGFR(S752-I759del) (Homo sapiens, UniProt P00533, DEL752-759). Description: biochemical. It is filed as binding. Particulars: read-out: Percent Control.
Sequence of EGFR(S752-I759del) (P00533 other isoform, or with tags, fused parts or gaps DEL752-759): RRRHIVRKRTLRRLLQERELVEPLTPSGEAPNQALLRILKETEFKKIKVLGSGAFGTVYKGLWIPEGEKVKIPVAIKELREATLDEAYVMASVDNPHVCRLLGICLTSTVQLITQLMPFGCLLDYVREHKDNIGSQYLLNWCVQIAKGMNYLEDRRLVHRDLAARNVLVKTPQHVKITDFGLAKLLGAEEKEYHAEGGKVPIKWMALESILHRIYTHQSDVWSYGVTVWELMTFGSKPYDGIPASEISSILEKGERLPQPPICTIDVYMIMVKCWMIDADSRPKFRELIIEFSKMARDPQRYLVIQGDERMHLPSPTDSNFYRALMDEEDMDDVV
In the next assay the target is PIK3CA(I800L) (Homo sapiens, UniProt P42336, I800L). Description: biochemical. Type of assay: binding. Conditions: read-out: Percent Control.
Sequence of PIK3CA(I800L) (P42336 whole entry I800L): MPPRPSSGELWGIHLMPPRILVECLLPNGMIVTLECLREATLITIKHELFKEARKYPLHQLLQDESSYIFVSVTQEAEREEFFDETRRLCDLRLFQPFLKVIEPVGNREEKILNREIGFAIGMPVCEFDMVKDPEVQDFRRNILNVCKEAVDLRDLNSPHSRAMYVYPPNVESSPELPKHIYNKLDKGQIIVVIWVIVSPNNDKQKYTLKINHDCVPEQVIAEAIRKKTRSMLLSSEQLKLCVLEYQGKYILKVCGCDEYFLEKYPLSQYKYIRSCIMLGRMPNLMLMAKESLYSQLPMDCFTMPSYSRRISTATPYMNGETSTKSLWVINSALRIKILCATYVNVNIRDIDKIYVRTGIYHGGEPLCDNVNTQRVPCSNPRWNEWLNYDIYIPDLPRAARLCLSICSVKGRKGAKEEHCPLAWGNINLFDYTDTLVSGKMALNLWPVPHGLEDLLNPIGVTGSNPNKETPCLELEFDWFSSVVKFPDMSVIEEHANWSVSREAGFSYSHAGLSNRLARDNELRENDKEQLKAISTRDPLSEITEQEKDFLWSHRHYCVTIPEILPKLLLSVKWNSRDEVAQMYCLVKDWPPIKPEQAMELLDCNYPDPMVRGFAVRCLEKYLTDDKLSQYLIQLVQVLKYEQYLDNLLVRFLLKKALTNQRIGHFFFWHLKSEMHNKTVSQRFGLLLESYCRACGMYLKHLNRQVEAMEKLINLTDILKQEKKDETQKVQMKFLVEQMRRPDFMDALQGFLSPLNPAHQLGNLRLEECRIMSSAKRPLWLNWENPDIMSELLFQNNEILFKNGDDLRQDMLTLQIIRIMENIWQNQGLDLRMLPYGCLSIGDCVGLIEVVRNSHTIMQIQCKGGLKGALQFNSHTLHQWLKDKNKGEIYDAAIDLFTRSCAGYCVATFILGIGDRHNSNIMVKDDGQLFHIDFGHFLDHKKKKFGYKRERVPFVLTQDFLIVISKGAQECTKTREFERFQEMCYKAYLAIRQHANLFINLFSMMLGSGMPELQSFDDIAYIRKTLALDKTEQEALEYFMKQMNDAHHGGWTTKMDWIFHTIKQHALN
A further assay has as its target ALK(L1196M) (Homo sapiens, UniProt Q9UM73, L1196M). Nature of the assay: biochemical. Type of assay: binding. Particulars: 1000 nM, read-out: Percent Control.
In the next assay the target is PIK3CA(C420R) (Homo sapiens, UniProt P42336, C420R). Nature of the assay: biochemical. Type of assay: binding. Particulars: read-out: Percent Control.
Sequence of PIK3CA(C420R) (P42336 whole entry C420R): as the sequence (P42336 whole entry I800L) above, with C420R, L800I counted along it
The target of another assay is RET(V804M) (Homo sapiens, UniProt P07949, V804M). Nature of the assay: biochemical. Conditions: 1000 nM, read-out: Percent Control. It is filed as binding.
Another assay addresses FLT3(D835Y) (Homo sapiens, UniProt P36888, D835Y). Nature of the assay: biochemical. Type of assay: binding. Conditions: 1000 nM, read-out: Percent Control.
The target in assay [4] is ABL1(T315I)-phosphorylated (Homo sapiens, UniProt P00519, T315I). Nature of the assay: biochemical. Type of assay: binding. Conditions: read-out: Percent Control.
Assay [5] addresses T3, PIK3CA(H1047L) (Homo sapiens, UniProt P42336, H1047L). Nature of the assay: biochemical. It is filed as binding. Conditions: read-out: Percent Control.
Assay [6] has as its target T4, ABL1(F317L)-phosphorylated (Homo sapiens, UniProt P00519, F317L). Description: biochemical. Type of assay: binding. Particulars: read-out: Percent Control.
In assay [7] the target is EGFR(L747-E749del, A750P) (Homo sapiens, UniProt P00533, A750P/DEL747-749). Nature of the assay: biochemical. Conditions: read-out: Percent Control. Type of assay: binding.
Another assay addresses EGFR(L858R,T790M) (Homo sapiens, UniProt P00533, L858R/T790M). Nature of the assay: biochemical. Type of assay: binding. Conditions: read-out: Percent Control.
Assay [8] concerns the target T3, PIK3CA(H1047L). Nature of the assay: biochemical. Type of assay: binding. Conditions: compound concentration 100 nM; Entrez PIK3CA; read-out: Percent Control.
In assay [9] the target is ABL1(F317I)-phosphorylated (Homo sapiens, UniProt P00519, F317I). Nature of the assay: biochemical. It is filed as binding. Conditions: compound concentration 100 nM; Entrez ABL1; read-out: Percent Control.
For assay [10], the target named is T4, ABL1(F317L)-phosphorylated. Description: biochemical. Conditions: compound concentration 100 nM; Entrez ABL1; read-out: Percent Control. It is filed as binding.
The target of assay [11] is T1, BRAF(V600E). Description: biochemical. Conditions: compound concentration 100 nM; Entrez BRAF; read-out: Percent Control. It is filed as binding.
For assay [12], the target named is EGFR(L747-S752del, P753S) (Homo sapiens, UniProt P00533, DEL747-752/P753S). Nature of the assay: biochemical. Type of assay: binding. Conditions: compound concentration 100 nM; Entrez EGFR; read-out: Percent Control.
For the next assay, the target named is LIMK1 (Homo sapiens, UniProt P53667). Nature of the assay: Differential scanning fluorimetry assay for LIMK1/2. Type of assay: binding. Particulars: LIMK1, 10 μM compound.
Sequence of LIMK1 (P53667 330-637): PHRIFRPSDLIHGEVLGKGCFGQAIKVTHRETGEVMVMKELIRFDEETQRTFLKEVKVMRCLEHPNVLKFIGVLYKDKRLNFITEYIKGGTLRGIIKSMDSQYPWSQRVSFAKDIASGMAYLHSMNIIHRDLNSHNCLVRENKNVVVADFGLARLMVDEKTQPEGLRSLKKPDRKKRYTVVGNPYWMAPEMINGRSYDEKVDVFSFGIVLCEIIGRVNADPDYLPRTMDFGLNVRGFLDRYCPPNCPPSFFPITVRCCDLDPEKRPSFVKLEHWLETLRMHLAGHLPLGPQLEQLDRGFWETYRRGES

T3 sequence (P42336 whole entry H1047L): as the sequence (P42336 whole entry I800L) above, with L800I, H1047L counted along it
Sequence of LRRK2(G2019S) (Q5S007 whole entry G2019S): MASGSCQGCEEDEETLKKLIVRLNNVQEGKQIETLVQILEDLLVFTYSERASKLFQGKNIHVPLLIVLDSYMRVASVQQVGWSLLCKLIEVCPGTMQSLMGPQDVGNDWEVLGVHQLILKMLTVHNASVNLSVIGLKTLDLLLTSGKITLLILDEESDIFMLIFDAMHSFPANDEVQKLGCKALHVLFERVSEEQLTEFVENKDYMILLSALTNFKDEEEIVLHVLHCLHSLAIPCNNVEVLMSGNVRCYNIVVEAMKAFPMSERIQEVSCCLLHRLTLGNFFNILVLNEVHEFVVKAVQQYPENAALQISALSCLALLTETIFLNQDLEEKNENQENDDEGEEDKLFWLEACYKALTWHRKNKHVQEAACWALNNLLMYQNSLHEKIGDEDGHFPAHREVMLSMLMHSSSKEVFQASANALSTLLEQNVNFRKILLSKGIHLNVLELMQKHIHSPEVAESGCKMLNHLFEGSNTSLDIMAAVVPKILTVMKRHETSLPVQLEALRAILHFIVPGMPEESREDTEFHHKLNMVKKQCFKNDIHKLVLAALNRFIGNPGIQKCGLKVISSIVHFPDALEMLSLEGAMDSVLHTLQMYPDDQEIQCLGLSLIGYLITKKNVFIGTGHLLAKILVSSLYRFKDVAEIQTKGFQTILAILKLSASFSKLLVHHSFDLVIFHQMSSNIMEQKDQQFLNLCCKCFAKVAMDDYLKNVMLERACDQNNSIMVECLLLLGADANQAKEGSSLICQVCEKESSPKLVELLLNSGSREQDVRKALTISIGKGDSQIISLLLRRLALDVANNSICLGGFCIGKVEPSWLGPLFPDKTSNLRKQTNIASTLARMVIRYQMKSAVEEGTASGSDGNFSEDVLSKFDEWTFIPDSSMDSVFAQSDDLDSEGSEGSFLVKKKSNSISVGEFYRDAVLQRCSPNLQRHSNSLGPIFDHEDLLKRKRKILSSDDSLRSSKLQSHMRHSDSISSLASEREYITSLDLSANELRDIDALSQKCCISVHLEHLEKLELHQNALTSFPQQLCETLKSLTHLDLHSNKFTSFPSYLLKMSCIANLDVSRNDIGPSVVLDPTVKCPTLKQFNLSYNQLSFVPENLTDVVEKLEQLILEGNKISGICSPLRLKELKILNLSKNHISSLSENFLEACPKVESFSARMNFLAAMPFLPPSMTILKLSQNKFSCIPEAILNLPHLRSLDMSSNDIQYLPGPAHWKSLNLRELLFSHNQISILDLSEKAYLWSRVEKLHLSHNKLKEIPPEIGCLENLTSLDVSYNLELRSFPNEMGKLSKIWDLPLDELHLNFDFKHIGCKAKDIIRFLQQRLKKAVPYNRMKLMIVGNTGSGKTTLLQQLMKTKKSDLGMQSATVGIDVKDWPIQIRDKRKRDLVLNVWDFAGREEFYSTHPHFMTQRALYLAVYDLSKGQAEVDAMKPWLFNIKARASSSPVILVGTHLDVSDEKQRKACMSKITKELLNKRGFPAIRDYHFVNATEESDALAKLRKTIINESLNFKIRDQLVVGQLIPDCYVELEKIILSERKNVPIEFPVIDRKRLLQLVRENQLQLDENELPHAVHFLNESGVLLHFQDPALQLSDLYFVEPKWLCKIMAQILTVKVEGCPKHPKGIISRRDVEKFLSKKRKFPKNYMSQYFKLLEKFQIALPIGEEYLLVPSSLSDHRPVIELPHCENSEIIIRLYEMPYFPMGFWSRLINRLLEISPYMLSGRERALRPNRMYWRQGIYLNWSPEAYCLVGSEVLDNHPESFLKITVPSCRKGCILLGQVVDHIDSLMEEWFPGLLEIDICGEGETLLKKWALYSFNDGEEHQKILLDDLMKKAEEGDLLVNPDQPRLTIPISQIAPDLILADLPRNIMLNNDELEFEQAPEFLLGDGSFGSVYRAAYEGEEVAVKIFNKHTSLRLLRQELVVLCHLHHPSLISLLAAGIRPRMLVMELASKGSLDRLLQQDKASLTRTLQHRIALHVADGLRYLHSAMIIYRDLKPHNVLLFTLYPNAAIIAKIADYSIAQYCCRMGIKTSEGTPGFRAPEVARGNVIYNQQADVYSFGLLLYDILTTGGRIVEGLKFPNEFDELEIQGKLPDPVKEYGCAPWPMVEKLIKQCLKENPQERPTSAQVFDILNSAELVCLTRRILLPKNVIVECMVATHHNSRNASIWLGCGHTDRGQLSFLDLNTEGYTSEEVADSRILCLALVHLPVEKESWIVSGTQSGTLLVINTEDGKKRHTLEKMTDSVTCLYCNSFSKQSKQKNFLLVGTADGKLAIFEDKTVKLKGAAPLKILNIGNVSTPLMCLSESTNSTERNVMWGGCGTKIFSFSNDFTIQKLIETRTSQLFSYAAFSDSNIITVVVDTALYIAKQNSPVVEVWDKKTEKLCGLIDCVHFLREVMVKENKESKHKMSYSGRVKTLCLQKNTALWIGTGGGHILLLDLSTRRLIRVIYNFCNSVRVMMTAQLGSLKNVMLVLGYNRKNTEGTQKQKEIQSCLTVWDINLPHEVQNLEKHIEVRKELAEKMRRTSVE
Experimental for LIMK1: The assay was performed according to a previously established protocol. […] The compounds to be tested were added to a final concentration of 10 μM. […] Data were analyzed with MxPro software.

Turning to `CN1C(=O)[C@@H](N2CCc3c(nn(Cc4ccccc4)c3C(N)=O)C2=O)COc2cc(Cl)ccc21` [Compound 10, (S)-2-benzyl-6-(8-chloro-5-methyl-4-oxo-2,3,4,5-tetrahydrobenzo[b][1,4]oxazepin-3-yl)-7-oxo-4,5,6,7-tetrahydro-2H-pyrazolo[3,4-c]pyridine-3-carboxamide], the receptor occupancy at 1 µM on JAK2 (V617F) is 2.27%; on BRAF(V600E) [1] it was -9.8%. Moreover, the remaining binding at 0.1 µM on RIPK1 (RIPK1 (Entrez RIPK1), 100 nM, read-out: Percent Control) is 55%. The remaining binding at 1 µM stood at 23% at RIPK1 (RIPK1, 1 μM, read-out: POC (Top Hits @ 1 μM)) and 23% at RIPK1 (RIPK1, 1000 nM, read-out: Percent Control). The remaining activity at 1 µM amounted to 78% in [2]; 82% at ALK(C1156Y); 85% in [3]; 86% at EGFR(G719C); 86% at LRRK2(G2019S); 89% on EGFR(S752-I759del). Besides, the remaining activity at 1 µM on PIK3CA(I800L) is 89%; on ALK(L1196M) it was 90%; at PIK3CA(C420R), 92%; at RET(V804M), 93%; on FLT3(D835Y), 94%; in assay [4] it was 99%. Moreover, the remaining activity at 1 µM is 99% at PIK3CA(H1047L) [5], 100% in assay [6], 100% in assay [7] and 100% on EGFR(L858R,T790M). For the same compound, the remaining activity at 0.1 µM at PIK3CA(H1047L) [8] came to 75%; in assay [9], 91%; in assay [10] it was 100%; at BRAF(V600E) [11] it was 100%; in assay [12], 97%.
In the case of `CN1C(=O)[C@@H](N2CCc3c(C(N)=O)nn(Cc4ccccc4)c3C2=O)COc2ccccc21` [Compound 11], the “ΔTM (stabilization in the DSF assay)” value at LIMK1 is “inactive”.
